Laboratory results taken from ChEMBL document CHEMBL4616632, “Discovery of Cyclic Boronic Acid QPX7728, an Ultrabroad-Spectrum Inhibitor of Serine and Metallo-β-lactamases” (J Med Chem, 2020).

Experiments:
Escherichia coli = test: Inhibition of Escherichia coli EC302 TEM-10 assessed as minimum concentration of compound needed to reduce the MIC of aztreonam to 4 ug/ml
[1] = target: Beta-lactamase (Klebsiella pneumoniae) (UniProt Q93LQ9); test: Inhibition of Klebsiella pneumoniae KP1004 KPC-2 assessed as minimum concentration of compound needed to reduce the MIC of aztreonam to 4 ug/ml
Pseudomonas aeruginosa = test: Inhibition of Pseudomonas aeruginosa PAM 2035 AmpC assessed as minimum concentration of compound needed to reduce the MIC of aztreonam to 4 ug/ml
[2] = AUC in rat at 100 mg/kg, po administered via gavage by HPLC/MS analysis; assay type: ADME, organism-based; settings: in vivo
[3] = Clearance in rat at 10 mg/kg, iv administered as infusion for 0.5 hrs by HPLC/MS analysis; assay type: ADME, organism-based; settings: in vivo
[4] = Cmax in rat at 10 mg/kg, iv administered as infusion for 0.5 hrs by HPLC/MS analysis; assay type: ADME, organism-based; parameters: dose 10 mg/kg, route intravenous; settings: in vivo
[5] = Half life in rat at 300 mg/kg, iv administered as infusion for 0.5 hrs by HPLC/MS analysis; assay type: ADME, organism-based; settings: in vivo
[6] = Protein binding in rat plasma; assay type: ADME, cell-free; settings: read-out: PPB (converted)
[7] = Toxicity in rat at 30 to 1000 mg/kg, po administered via gavage; assay type: organism-based; settings: in vivo
[8] = Toxicity in rat assessed as clinical changes at 30 to 300 mg/kg, iv administered daily via infusion for 7 days; assay type: organism-based; settings: in vivo, 168 h
Enterobacteriaceae [9] = test: Potentiation of cefepime-induced antibacterial activity against carbapenem-resistant Enterobacteriaceae assessed as cefepime MIC50 at 8 ug/ml by broth microdilution method (Rvb > 32 ug/ml); assay type: functional
Enterobacteriaceae [10] = test: Inhibition of NDM/VIM in carbapenem-resistant Enterobacteriaceae assessed as potentiation of cefepime-induced antibacterial activity by measuring cefepime MIC50 at 8 ug/ml by broth microdilution method (Rvb > 32 ug/ml)
Enterobacteriaceae [11] = test: Inhibition of OXA-48 in carbapenem-resistant Enterobacteriaceae assessed as potentiation of cefepime-induced antibacterial activity by measuring cefepime MIC90 at 8 ug/ml by broth microdilution method (Rvb > 32 ug/ml)
Enterobacteriaceae [12] = test: Potentiation of cefepime-induced antibacterial activity against carbapenem-resistant Enterobacteriaceae assessed as cefepime MIC90 at 8 ug/ml by broth microdilution method (Rvb > 32 ug/ml); assay type: functional
Enterobacteriaceae [13] = test: Inhibition of OXA-48 in carbapenem-resistant Enterobacteriaceae assessed as potentiation of ceftolozane-induced antibacterial activity by measuring ceftolozane MIC90 at 8 ug/ml by broth microdilution method (Rvb > 32 ug/ml)
Enterobacteriaceae [14] = test: Potentiation of ceftolozane-induced antibacterial activity against carbapenem-resistant Enterobacteriaceae assessed as ceftolozane MIC90 at 8 ug/ml by broth microdilution method (Rvb > 32 ug/ml); assay type: functional

Sequence of Beta-lactamase (Klebsiella pneumoniae) (Q93LQ9 as listed by the source): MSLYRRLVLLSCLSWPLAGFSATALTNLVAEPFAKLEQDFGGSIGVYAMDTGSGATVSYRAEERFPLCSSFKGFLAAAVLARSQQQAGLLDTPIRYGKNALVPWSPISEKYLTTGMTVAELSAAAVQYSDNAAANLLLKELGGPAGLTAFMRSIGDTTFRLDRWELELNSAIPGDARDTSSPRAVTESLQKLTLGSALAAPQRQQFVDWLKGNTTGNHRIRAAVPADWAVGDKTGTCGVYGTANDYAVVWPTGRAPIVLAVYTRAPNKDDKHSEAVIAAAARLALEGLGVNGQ

O=C(O)c1c(F)ccc2c1OB(O)[C@@H]1C[C@H]21 [XERUBORBACTAM]
MEC (Escherichia coli): 0.16 µg/mL | MEC [1]: 0.3 µg/mL | MEC (Pseudomonas aeruginosa): 5 µg/mL | AUC [2]: 89700 ng·h/mL | clearance [3]: 4.83 mL/min/kg | Cmax [4]: 26100 ng/mL | half-life [5]: 1.18 h | fraction unbound [6]: 0.15 | Activity [7]: Non-Toxic | Activity [8]: Toxic | MIC50 (Enterobacteriaceae [9]): 0.125 µg/mL | MIC50 (Enterobacteriaceae [10]): < 0.06 µg/mL | MIC90 (Enterobacteriaceae [11]): 0.5 µg/mL | MIC90 (Enterobacteriaceae [12]): 0.5 µg/mL | MIC90 (Enterobacteriaceae [13]): 0.5 µg/mL | MIC90 (Enterobacteriaceae [14]): 1 µg/mL
